In experiment [1] the test system is mouse colon cancer, Colon26. Kind of experiment: Antitumor effect against tumor-bearing mouse (2). Type of experiment: in vivo. Conditions: once intravenously, dose 160 in terms of gemcitabine hydrochloride, average ± SD. From the text: A tumor mass of mouse colon cancer, Colon26, which had been subcutaneously subcultured in a mouse was cut into a block having an edge of about 2 mm at each side, and was transplanted under the skin of a mouse using a trocar. On the 7th day after tumor transplantation, the compound of Example 11, the compound of Example 14 and the compound of Example 17, dissolved in a 5% glucose injection solution and gemcitabine hydrochloride as a control drug dissolved in physiological saline were respectively administered once intravenously at the doses indicated in Table 3. The tumor volumes on the day of initiation of administration, and on the 7th day and 26th day after the initiation of administration were calculated by the above-described equation, and the relative tumor volumes on the day of initiation of administration and on the 7th day and 26th day after the initiation of administration were determined.

Experiment [2] has as its system mouse colon cancer, Colon26. Kind of experiment: Antitumor effect against tumor-bearing mouse (1). Type of experiment: in vivo. Conditions: 8th day after initiation of administration, once intravenously, volume on day of administration = 1.0, average ± SD. The text has this:
Tumor of mouse colon cancer, Colon26, maintained by subcutaneous subculture in mice, was minced into about 2-mm square blocks, and the blocks were transplanted subcutaneously on the dorsal part of a mouse using a trocar. On the 7th day after tumor transplantation, the compound of Example 5 dissolved in a 5% glucose injection solution and gemcitabine hydrochloride as a control drug dissolved in physiological saline were respectively administered once intravenously at the doses indicated in Table 2. The tumor volumes on the day of initiation of administration and on the 8th day after the initiation of administration were calculated by the following equation, and the relative tumor volumes on the day of initiation of administration and on the 8th day after the initiation of administration were determined.

Where a name gives a salt, the structure may show the parent alone.

Consider `Nc1ccn([C@@H]2O[C@H](CO)[C@@H](O)C2(F)F)c(=O)n1` [Control drug, gemcitabine hydrochloride], for which the “Relative tumor volume *” value in experiment [1] (7th day after initiation of administration) is listed as 1.5 ± 1.5. Besides, the “Relative tumor volume **” value in experiment [1] (26th day after initiation of administration) worked out at 25.8 ± 36.0. Further, the figures for the Relative tumor volume in experiment [2] (dose 40 mg/kg in terms of gemcitabine hydrochloride) and in experiment [2] (dose 200 mg/kg in terms of gemcitabine hydrochloride) were 5.3 ± 1.1 and 4.8 ± 1.7, respectively.

Values taken from US8188222B2, “High molecular weight derivative of nucleic acid antimetabolite” (priority 2006, dated 2012).
